According to US4740501A (priority 1985, dated 1988):

Key:
L-1210 leukemia cells = assay: Tumor cell survival after pulse treatment; type: cell-based, Mouse; conditions: for Percent Tumor Cell Survival: viability 24 hr later
Protocol: All rabbit, marmoset and human lymphoid in vitro cell lines, murine L-1210 leukemia and primary human leukemias were treated at cell concentrations of 6-10×10^5 cells/ml. The tripeptide was added to the cell suspensions to yield final concentrations of 1 to 50 ug/ml. Cultures were treated at 37° C. for periods ranging between 15 min to 24 hr. Following treatment, aliquots were removed and centrifuged at 800 rpm for 9 min, at 5° C. Treatment media were gently aspirated and the lymphoid cells resuspended in fresh growth media and reincubated at 37° C. Culture media were changed daily by gently pelleting the cells and exchanging 60-70% of the spent supernatant with fresh media.
Survival of tumor cell layers or suspensions was ascertained using 0.5% trypan blue in 0.1M phosphate-buffered saline, pH 7.25. Cell layers were released from the Multidish-4 wells with 0.5 ml STV, diluted 2 to 10 fold with the vital strain; tumor cells in suspension cultures were directly mixed 1:1 with the trypan blue dye. Tumor cells were enumerated using a haemocytometer; all 10 fields were counted for every sample. Percent viable cells was determined by direct comparison of the numbers of cells excluding trypan blue in treated cultures to those in untreated or diluent-treated parallel cultures. There were no significant differences in the viability of cells treated with diluent when compared to untreated cells.
To delineate the minimum concentration and duration of the tripeptide compound exposure to induce cytolysis, MJY-alpha and B-16 melanoma cell layers and L-1210 leukemia cell suspensions were exposed to 0.5 to 50 ug of the tripeptide compound per ml of solvent for 0.25 to 4 hours. The tripeptide compound was then removed and the cells washed and reincubated in media growth. Tumor cell viability was determined 24 hrs after pulse tripeptide compound exposure. Cell survival of all three tumor cell lines was reduced by an exposure period of as short as 15 min (Table 4). The degree of cytolysis increased with extension of the treatment periods from 15 min to 4 hrs, although the decreases in cell survival were not proportional to the duration of the exposure. […] Comparison of the data in Tables 2 and 4 reveal that cells exposed to the tripeptide compound for one hour were irreversibly damaged when assayed a day later despite their apparent viability immediately after treatment.
The reversibility of the cancericidal activity of the tripeptide compounds on L-1210 leukemia, MJY-alpha mammary tumor and B-16 melanoma cells was also monitored in the nonhostile tissue culture environment. Cell suspensions of these tumor models were treated with tripeptide for 15 to 240 min, washed and either inoculated into mice or maintained as suspension (L-1210) or monolayer cultures (MJY-alpha and B-16). Reductions in tumor cells survival were negligible (0-6%) in all three tumor systems at initiation of in vitro cultures following treatment with 50 ug tripeptide/ml for as long as 4 hrs. However, significant decreases in cellular viabilities of L-1210 leukemia (FIG. 9), MJY-alpha mammary tumor (FIG. 10) and B-16 melanoma (FIG. 11) tumor cells were observed 24 hr following tripeptide exposure and for the next 6 days.

MMTV = assay: Extracellular MMTV protein by ELISA; type: cell-based, mouse; conditions: for ug MMTV protein/150 cm^2 culture: untreated 20.32
Protocol: Extracellular MMTV was quantitated using a modification of a direct Enzyme-Linked Immunosorbent Assay (ELISA) technique devised by Khan et al. (1982). Nunc immunoplates were sensitized with MMTV preparations disrupted in 2% NP-40 and serially diluted in 0.15M Na2 CO3 -0.035M NaHCO3 buffer, pH 8.6, by incubation in a moist chamber for 18 hours at 4° C. Wells were washed three times between all procedural steps with 0.01M phosphate-buffered-saline with 0.5% Tween 80, pH 7.4 (Pi/Na/Tween). Sensitized wells were then sequentially subjected to 1 hour incubations with (1) 0.5% bovine serum albumin in Pi/NaCl/Tween (4° C.), followed by either (2) preimmune rabbit sera or multivalent anti-MMTV antisera diluted 1:50 in Pi/NaCl/Tween at 37° C., and finally (3) a 1:1000 dilution of alkaline phosphatase-conjugated goat anti-rabbit IgG (Dynatech, Inc.) at 37° C. Reactions were terminated with 25 ul of 3N NaOH after incubation for 1 to 2 hours at 37° C. Intensity of the color reactions were determined at […] using a Dynatech ELISA plate reader. The detection limit of the assay was 3-5 ng MMTV protein per well.

CCOC(=O)[C@H](CCSC)NC(=O)[C@H](Cc1cccc(N(CCCl)CCCl)c1)NC(=O)[C@@H](N)Cc1ccc(F)cc1.Cl [PTT.119, 3-(p-fluorophenyl)-L-alanyl-3-[m-bis(2-chloroethyl)aminophenyl]-L-alanyl-L-methionine ethyl ester hydrochloride]
cytotoxicity lower compared to untreated L1210 cells (L1210 leukemia cells): 20-30% | dose response curves of L1210, L1210-T1 and L1210-T2 (L1210 leukemia cells): no differences could be detected | viability in continuous treatment (L1210 leukemia cells): nonviable | viability of L1210-T1 in continuous treatment (L1210 leukemia cells): nonviable | Percent Tumor Cell Survival (L-1210 leukemia cells; L-1210, 1 ug/ml, pulse 1 hr): 83% | Percent Tumor Cell Survival (L-1210 leukemia cells; L-1210, 1 ug/ml, pulse 2 hr): 78% | Percent Tumor Cell Survival (L-1210 leukemia cells; L-1210, 1 ug/ml, pulse 4 hr): 45% | Percent Tumor Cell Survival (L-1210 leukemia cells; L-1210, 1 ug/ml, pulse .25 hr): 80% | Percent Tumor Cell Survival (L-1210 leukemia cells; L-1210, 1 ug/ml, pulse .5 hr): 87% | Percent Tumor Cell Survival (L-1210 leukemia cells; L-1210, 5 ug/ml, pulse 1 hr): 61% | Percent Tumor Cell Survival (L-1210 leukemia cells; L-1210, 5 ug/ml, pulse 2 hr): 57% | Percent Tumor Cell Survival (L-1210 leukemia cells; L-1210, 5 ug/ml, pulse 4 hr): 35% | Percent Tumor Cell Survival (L-1210 leukemia cells; L-1210, 5 ug/ml, pulse .25 hr): 72% | Percent Tumor Cell Survival (L-1210 leukemia cells; L-1210, 5 ug/ml, pulse .5 hr): 60% | Percent Tumor Cell Survival (L-1210 leukemia cells; L-1210, 10 ug/ml, pulse 1 hr): 27% | Percent Tumor Cell Survival (L-1210 leukemia cells; L-1210, 10 ug/ml, pulse 2 hr): 31% | Percent Tumor Cell Survival (L-1210 leukemia cells; L-1210, 10 ug/ml, pulse 4 hr): 37% | Percent Tumor Cell Survival (L-1210 leukemia cells; L-1210, 10 ug/ml, pulse .25 hr): 53% | Percent Tumor Cell Survival (L-1210 leukemia cells; L-1210, 10 ug/ml, pulse .5 hr): 40% | Percent Tumor Cell Survival (L-1210 leukemia cells; L-1210, 20 ug/ml, pulse 1 hr): 0% | Percent Tumor Cell Survival (L-1210 leukemia cells; L-1210, 20 ug/ml, pulse .25 hr): 0% | Percent Tumor Cell Survival (L-1210 leukemia cells; L-1210, 20 ug/ml, pulse .5 hr): 0% | Percent Tumor Cell Survival (L-1210 leukemia cells; L-1210, 25 ug/ml, pulse 1 hr): 0% | Percent Tumor Cell Survival (L-1210 leukemia cells; L-1210, 25 ug/ml, pulse 2 hr): 0% | Percent Tumor Cell Survival (L-1210 leukemia cells; L-1210, 25 ug/ml, pulse 4 hr): 0% | Percent Tumor Cell Survival (L-1210 leukemia cells; L-1210, 25 ug/ml, pulse .25 hr): 20% | Percent Tumor Cell Survival (L-1210 leukemia cells; L-1210, 25 ug/ml, pulse .5 hr): 7% | reductions in tumor cell survival at initiation of in vitro cultures (L-1210 leukemia cells; L-1210, 50 ug/ml for as long as 4 hrs (all three tumor systems)): 0-6% | Percent Tumor Cell Survival (L-1210 leukemia cells; L-1210, .5 ug/ml, pulse 1 hr): 83% | Percent Tumor Cell Survival (L-1210 leukemia cells; L-1210, .5 ug/ml, pulse 2 hr): 94% | Percent Tumor Cell Survival (L-1210 leukemia cells; L-1210, .5 ug/ml, pulse 4 hr): 68% | Percent Tumor Cell Survival (L-1210 leukemia cells; L-1210, .5 ug/ml, pulse .25 hr): 95% | Percent Tumor Cell Survival (L-1210 leukemia cells; L-1210, .5 ug/ml, pulse .5 hr): 90% | L-1210 cells destroyed compared to mammary tumor and melanoma cells (L-1210 leukemia cells; any given concentration, 30 min or 1 hr pulse, 5 days): approximately 5 times | levels of extracellular MMTV compared to control cells (MMTV; 0.15, 1.5 and 7.5 uM, after 10 in vitro passages): less than 50% | ug MMTV protein/150 cm^2 culture (MMTV; continual 0.15 uM, passage 1): 17.4 µg | ug MMTV protein/150 cm^2 culture (MMTV; continual 0.15 uM, passage 5-6): 16.8 µg | ug MMTV protein/150 cm^2 culture (MMTV; continual 0.15 uM, passage 9-10): 9.52 µg | ug MMTV protein/150 cm^2 culture (MMTV; continual 1.5 uM, passage 5-6): 15.9 µg | ug MMTV protein/150 cm^2 culture (MMTV; continual 1.5 uM, passage 9-10): 7.5 µg | ug MMTV protein/150 cm^2 culture (MMTV; continual 7.5 uM, passage 5-6): 11.8 µg | ug MMTV protein/150 cm^2 culture (MMTV; continual 7.5 uM, passage 9-10): 8.3 µg | MMTV protein, % of control level (MMTV; day 1, 15 uM 2 hr pulse): 78% | ug MMTV protein/75 cm^2 flask (MMTV; day 1, 15 uM 2 hr pulse, control 20.6): 16.0 µg | MMTV protein, % of control level (MMTV; day 1, 15 uM 4 hr pulse): 81% | ug MMTV protein/75 cm^2 flask (MMTV; day 1, 15 uM 4 hr pulse, control 20.6): 16.7 µg | MMTV protein, % of control level (MMTV; day 1, 37.5 uM 0.5 hr pulse): 70% | ug MMTV protein/75 cm^2 flask (MMTV; day 1, 37.5 uM 0.5 hr pulse, control 20.6): 14.4 µg | MMTV protein, % of control level (MMTV; day 1, 37.5 uM 1.0 hr pulse): 53% | ug MMTV protein/75 cm^2 flask (MMTV; day 1, 37.5 uM 1.0 hr pulse, control 20.6): 11.0 µg | MMTV protein, % of control level (MMTV; day 2, 15 uM 2 hr pulse): 64% | ug MMTV protein/75 cm^2 flask (MMTV; day 2, 15 uM 2 hr pulse, control 19.3): 12.3 µg | MMTV protein, % of control level (MMTV; day 2, 15 uM 4 hr pulse): 62% | ug MMTV protein/75 cm^2 flask (MMTV; day 2, 15 uM 4 hr pulse, control 19.3): 11.9 µg | MMTV protein, % of control level (MMTV; day 2, 37.5 uM 0.5 hr pulse): 57% | ug MMTV protein/75 cm^2 flask (MMTV; day 2, 37.5 uM 0.5 hr pulse, control 19.3): 11.0 µg | MMTV protein, % of control level (MMTV; day 2, 37.5 uM 1.0 hr pulse): 58% | ug MMTV protein/75 cm^2 flask (MMTV; day 2, 37.5 uM 1.0 hr pulse, control 19.3): 11.2 µg | MMTV protein, % of control level (MMTV; day 7, 15 uM 2 hr pulse): 31% | ug MMTV protein/75 cm^2 flask (MMTV; day 7, 15 uM 2 hr pulse, control 35.2): 11.0 µg | MMTV protein, % of control level (MMTV; day 7, 15 uM 4 hr pulse): 22% | ug MMTV protein/75 cm^2 flask (MMTV; day 7, 15 uM 4 hr pulse, control 35.2): 7.6 µg | MMTV protein, % of control level (MMTV; day 7, 37.5 uM 0.5 hr pulse): 16% | ug MMTV protein/75 cm^2 flask (MMTV; day 7, 37.5 uM 0.5 hr pulse, control 35.2): 5.8 µg | MMTV protein, % of control level (MMTV; day 7, 37.5 uM 1.0 hr pulse): 3% | ug MMTV protein/75 cm^2 flask (MMTV; day 7, 37.5 uM 1.0 hr pulse, control 35.2): 0.9 µg
